# Biological target: T1, recombinant hFAP (Homo sapiens, UniProt Q12884)
# T1 sequence (Q12884 26-760 limits assumed): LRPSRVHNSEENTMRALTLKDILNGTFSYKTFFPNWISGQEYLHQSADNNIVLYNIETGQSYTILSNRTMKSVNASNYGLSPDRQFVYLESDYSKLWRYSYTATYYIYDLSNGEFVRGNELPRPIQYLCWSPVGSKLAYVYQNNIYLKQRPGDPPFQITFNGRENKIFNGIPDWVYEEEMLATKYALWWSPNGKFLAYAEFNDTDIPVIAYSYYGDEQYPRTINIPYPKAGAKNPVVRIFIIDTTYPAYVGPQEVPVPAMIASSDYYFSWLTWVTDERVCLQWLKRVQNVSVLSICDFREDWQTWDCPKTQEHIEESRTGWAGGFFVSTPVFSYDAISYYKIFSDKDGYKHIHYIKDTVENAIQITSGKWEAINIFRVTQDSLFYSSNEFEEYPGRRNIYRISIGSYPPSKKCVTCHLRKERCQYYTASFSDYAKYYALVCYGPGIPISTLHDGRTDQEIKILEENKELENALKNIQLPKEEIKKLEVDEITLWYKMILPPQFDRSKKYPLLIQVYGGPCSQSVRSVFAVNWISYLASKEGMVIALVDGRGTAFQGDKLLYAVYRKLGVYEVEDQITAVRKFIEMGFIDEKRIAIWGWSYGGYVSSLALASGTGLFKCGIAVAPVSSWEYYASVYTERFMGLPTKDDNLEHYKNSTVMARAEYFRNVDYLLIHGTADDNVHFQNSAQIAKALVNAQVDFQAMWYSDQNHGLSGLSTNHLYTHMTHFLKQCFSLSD
# Assay: hFAP inhibition assay (Z-Gly-Pro-AMC substrate)
# Format: biochemical
# Conditions: Z-Gly-Pro-AMC 20 μM; protein 66 μM; pH 7.4; room temperature
# Protocol: (§1) Enzymatic activity of hFAP on the Z-Gly-Pro-AMC substrate was measured at room temperature on a microtiter plate reader, monitoring the fluorescence at an excitation wavelength of 360 nm and an emission wavelength of 465 nm. The reaction mixture contained substrate (20 μM), protein (66 μM, constant), assay buffer (50 mM Tris, 100 mM NaCl, and 1 mM EDTA, pH=7.4), and inhibitors with serial dilution from 167 nM to 80 fM, 1:2 in a total volume of 20 μL. Experiments were performed in triplicate, and the mean fluorescence values were fitted using Prism 7. The value is defined as the concentration of inhibitor required to reduce the enzyme activity by 50% after addition of the substrate [FIG. 1 and FIG. 8].
# According to the same procedure, further comparative inhibition assays with trimeric binders having inter alia different lengths of linker group B and/or different payload groups C were performed with compounds Tri-ESV6-ValCit-MMAE (14), Tri-ESV6-linker-DOTAGA (13) and diastereoisomers of Tri-ESV6-DOTAGA (11, 12) [FIG. 18]. Comparative hFAP inhibition assays with tetravalent binders 10 and 29 were also performed [FIG. 20].
# as §1, with “substrate.” for “substrate [FIG. 1 and FIG. 8].”
# as §1, with “e) Inhibition assay with Tri-ESV6-DOTAGA, Tetra-ESV6-DOTAGA, Hexa-ESV6-DOTAGA, Octa-ESV6-DOTAGA, ESV6-L-DOTAGA and BI-ESV6-L-DOTAGA. Enzymatic” for “Enzymatic”, “substrate.” for “substrate [FIG. 1 and FIG. 8].”
row,IC50,SMILES
1,0.273 nM,N#C[C@@H]1CC(F)(F)CN1C(=O)CNC(=O)c1ccnc2c(NC(=O)CCC(=O)NCCOCCOCCOCCOCCOCCOCCC(=O)NCCNC(=O)CCOCC(COCCC(=O)NCCNC(=O)CCOCCOCCOCCOCCOCCOCCNC(=O)CCC(=O)Nc3cccc4c(C(=O)NCC(=O)N5CC(F)(F)C[C@H]5C#N)ccnc34)(COCCC(=O)NCCNC(=O)CCOCCOCCOCCOCCOCCOCCNC(=O)CCC(=O)Nc3cccc4c(C(=O)NCC(=O)N5CC(F)(F)C[C@H]5C#N)ccnc34)NC(=O)CCC(C(=O)O)N3CCN(CC(=O)O)CCN(CC(=O)O)CCN(CC(=O)O)CC3)cccc12 (stereo partly shown) [Tri-ESV6-PEG6-DOTAGA]
2,0.126 nM,N#C[C@@H]1CC(F)(F)CN1C(=O)CNC(=O)c1ccnc2c(NC(=O)CCC(=O)NCCOCCOCCOCCOCCC(=O)NCCNC(=O)CCOCC(COCCC(=O)NCCNC(=O)CCOCCOCCOCCOCCNC(=O)CCC(=O)Nc3cccc4c(C(=O)NCC(=O)N5CC(F)(F)C[C@H]5C#N)ccnc34)(COCCC(=O)NCCNC(=O)CCOCCOCCOCCOCCNC(=O)CCC(=O)Nc3cccc4c(C(=O)NCC(=O)N5CC(F)(F)C[C@H]5C#N)ccnc34)NC(=O)CCC(C(=O)O)N3CCN(CC(=O)O)CCN(CC(=O)O)CCN(CC(=O)O)CC3)cccc12 (stereo partly shown) [Tri-ESV6-PEG4-DOTAGA]
3,0.038 nM,N#C[C@@H]1CC(F)(F)CN1C(=O)CNC(=O)c1ccnc2c(NC(=O)CCC(=O)NCCOCCOCCC(=O)NCCNC(=O)CCOCC(COCCC(=O)NCCNC(=O)CCOCCOCCNC(=O)CCC(=O)Nc3cccc4c(C(=O)NCC(=O)N5CC(F)(F)C[C@H]5C#N)ccnc34)(COCCC(=O)NCCNC(=O)CCOCCOCCNC(=O)CCC(=O)Nc3cccc4c(C(=O)NCC(=O)N5CC(F)(F)C[C@H]5C#N)ccnc34)NC(=O)CCC(C(=O)O)N3CCN(CC(=O)O)CCN(CC(=O)O)CCN(CC(=O)O)CC3)cccc12 (stereo partly shown) [Tri-ESV6-PEG2-DOTAGA]
4,1.1 nM,N#C[C@@H]1CC(F)(F)CN1C(=O)CNC(=O)c1ccnc2c(NC(=O)CCC(=O)NCCOCCOCCOCCOCCOCCOCCOCCOCCC(=O)NCCNC(=O)CCOCC(COCCC(=O)NCCNC(=O)CCOCCOCCOCCOCCOCCOCCOCCOCCNC(=O)CCC(=O)Nc3cccc4c(C(=O)NCC(=O)N5CC(F)(F)C[C@H]5C#N)ccnc34)(COCCC(=O)NCCNC(=O)CCOCCOCCOCCOCCOCCOCCOCCOCCNC(=O)CCC(=O)Nc3cccc4c(C(=O)NCC(=O)N5CC(F)(F)C[C@H]5C#N)ccnc34)NC(=O)CCC(C(=O)O)N3CCN(CC(=O)O)CCN(CC(=O)O)CCN(CC(=O)O)CC3)cccc12 (stereo partly shown) [Tri-ESV6-PEG8-DOTAGA]

# Same assay, conditions: recombinant hFAP
row,SMILES,"IC50 / inhibitory activity, comparison in words"
1,N#C[C@@H]1CC(F)(F)CN1C(=O)CNC(=O)c1ccnc2c(NC(=O)CCC(=O)NCCNC(=O)CCOCC(COCCC(=O)NCCNC(=O)CCC(=O)Nc3cccc4c(C(=O)NCC(=O)N5CC(F)(F)C[C@H]5C#N)ccnc34)NC(=O)CCOCC(COCCC(=O)NC(COCCC(=O)NCCNC(=O)CCC(=O)Nc3cccc4c(C(=O)NCC(=O)N5CC(F)(F)C[C@H]5C#N)ccnc34)COCCC(=O)NCCNC(=O)CCC(=O)Nc3cccc4c(C(=O)NCC(=O)N5CC(F)(F)C[C@H]5C#N)ccnc34)NC(=O)CCC(C(=O)O)N3CCN(CC(=O)O)CCN(CC(=O)O)CCN(CC(=O)O)CC3)cccc12 (stereo partly shown) [Tetra-ESV6-DOTAGA],directly proportional to the valency until Tetra-ESV6-DOTAGA
2,N#C[C@@H]1CC(F)(F)CN1C(=O)CNC(=O)c1ccnc2c(NC(=O)CCC(=O)NCCNC(=O)CCOCCNC(=O)CCC(C(=O)O)N3CCN(CC(=O)O)CCN(CC(=O)O)CCN(CC(=O)O)CC3)cccc12 (stereo partly drawn) [ESV6-L-DOTAGA],IC50 comparable to the ones of original derivatives
3,"N#C[C@@H]1CC(F)(F)CN1C(=O)CNC(=O)c1ccnc2c(NC(=O)CCC(=O)NCCCCC(NC(=O)CCC(=O)Nc3cccc4c(C(=O)NCC(=O)N5CC(F)(F)C[C@H]5C#N)ccnc34)C(=O)NCCNC(=O)CCC(C(=O)O)N3CCN(CC(=O)O)CCN(CC(=O)O)CCN(CC(=O)O)CC3)cccc12 (stereo partly shown) [Bi-ESV6-DOTAGA, reference compound]",IC50 comparable to the ones of original derivatives
